Measurements: PubChem BioAssay AID1902 (Broad Institute, 2009)
Activity calls are given as the source filed them.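 The calls were made as follows: active = EC50 no more than a set limit of log units above the highest dose; inactive = the rest.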

These compounds were tested against S. pyogenes SKKanGAS, kanamycin survival, BacTiterGlo, 6 h (assay: S. pyogenes SKKanGAS kanamycin growth inhibitors – SKKanGAS strain, luminescence, dose confirmation, streptokinase promoter inhibitor project, dose response (AID 1902);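 also: lower survival reflects blocked streptokinase promoter driving kanamycin resistance gene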).

Row | Compound | EC50
1 | CC1(C)N=C(N)NC(Nc2ccccc2)=N1 | 3.75 µM
2 | CS(=O)(=O)c1ccc2nc(NC(=O)c3ccc(NS(=O)(=O)c4ccc(F)c(F)c4)cc3)sc2c1 | 0.622 µM
3 | CN1CCN(C(c2ccc(C(F)(F)F)cc2)c2cc(Cl)c3cccnc3c2O)CC1 (centres undefined) | 0.682 µM
4 | O=c1cc2oc3cc(O)c(O)cc3c(-c3ccccc3[N+](=O)[O-])c-2cc1O | 9.36 µM
5 | O=c1c(O)c(-c2cccs2)oc2ccccc12 | 3.94 µM
6 | COc1cc(/C=C2/SC(=S)N(Cc3ccccc3)C2=O)cc(Cl)c1O | 2.58 µM
7 | CCOc1ccc(NC(=O)CN(C)C(=O)C2CC(=O)N(c3ccc4c(c3)OCCO4)C2)cc1OCC (centres undefined) | > 15 µM (inactive)
8 | O=Nc1c(O)c2ccccc2c2ccccc12 | 2.34 µM
9 | Cc1nnc(NC(=O)c2ccc(S(=O)(=O)N3CC(C)CC(C)C3)cc2)o1 (centres undefined) | 5.82 µM
10 | CCOc1cccc2sc(Nc3nc4ccc(NC(C)=O)cc4s3)nc12 | 4.69 µM
11 | N#CC1=C(N)SC(N)=C(C#N)C1c1c(Cl)cccc1Cl | 8.78 µM
12 | COc1ccc(C#Cc2ccc3c(=O)c4ccccc4n(C)c3c2)cc1 | 13.9 µM
13 | Cc1cc(S(=O)(=O)NCCC2=CCCCC2)ccc1Br | 5.43 µM
14 | O=C(/C=C/c1cn(-c2ccccc2)nc1-c1ccccc1)Nc1ccc(C(=O)O)cc1 | 3.76 µM
15 | O=S(=O)(Nc1c(S(=O)(=O)c2ccccc2)c2nc3ccccc3nc2n1C1CCCCC1)c1ccccc1 | 2.71 µM
16 | Nc1ccc(N=Nc2ccccc2)c2ccccc12 | 6.71 µM
17 | Cc1cc(-c2c(C)[nH]n(-c3ccc(Cl)cc3)c2=O)n[nH]1 | 1.78 µM
18 | O=C(O)CSc1nnc(Cn2c(=O)sc3ccccc32)n1-c1cccc(Cl)c1 | > 15 µM (inactive)
19 | CCCC(=O)NC(c1ccc(C)cc1)c1ccc2cccnc2c1O (centres undefined) | 4.16 µM
20 | O=C(NC(=S)N(Cc1ccccc1)Cc1ccccc1)c1ccccc1F | 0.752 µM
21 | c1ccc(CNc2nc(-c3ccccn3)nc3ccccc23)cc1 | 0.418 µM
22 | O=C(CCCSc1ccccc1)Nc1nc(-c2ccccn2)cs1 | 6.17 µM
23 | Cc1cccc(/C=N/NC(=O)c2ccccc2OCc2cccc(Br)c2)n1 | 6.56 µM
24 | CCC(=O)N1N=C(c2c(O)n(C)c(=O)n(C)c2=O)CC1c1ccccc1 (centres undefined) | 2.42 µM
25 | O=C(Nc1cccc(Cl)c1N1CCCC1)c1ccc(Br)o1 | 5.82 µM
26 | COc1ccc(CCN2CC(C(=O)NCCc3ccccn3)CCC2=O)cc1 (centres undefined) | > 15 µM (inactive)
27 | Cc1nn2c(NCc3ccccn3)cc(C(C)C)nc2c1-c1ccccc1 | 5.94 µM

Row | Compound | EC50
28 | COc1cc(OC)cc(-c2cc3nc4c(c(N5CCN(c6ncccn6)CC5)n3n2)CCCC4)c1 | 6.28 µM
29 | N=C1S/C(=C\c2cn[nH]c2-c2ccc(F)cc2)C(=O)N1c1ccccc1F | 3.65 µM
30 | Cc1cccc(NC2=NC(C)(C)N=C(N)N2)c1 | 0.109 µM
31 | C/C(=N\NC(=O)COc1ccccc1-c1ccccc1)c1ccccn1 | 0.667 µM
32 | Cc1ccc(C(=O)c2c(C)oc3c2C(=O)C(=O)c2ccccc2-3)cc1 | 0.801 µM
33 | CCCN(CC1CC1)c1nc(C)nc(Nc2c(Cl)cc(Cl)cc2Cl)c1Cl | 1.26 µM
34 | COC(=O)c1ccc(Cl)c(NC(=O)CSc2nnc(-c3ccncc3)o2)c1 | > 15 µM (inactive)
35 | CC(C)C[C@H](NC(=O)c1[nH]cnc1C(=O)N[C@@H](C)c1ccccc1)C(=O)OCc1ccccc1 | 1.16 µM
36 | Cc1ccc(/C=C2/Sc3ccc(C(=O)N4CCN(C)CC4)cc3NC2=O)cc1 | 13.4 µM
37 | CCc1noc(C)c1C(=O)OCC(=O)NC(=O)c1ccccc1 | > 15 µM (inactive)
38 | O=c1c2ccccc2c(-c2ccccc2)nn1Cc1c(Cl)cccc1Cl | 6.08 µM
39 | CCSc1nnc(NC(=O)c2ccc3ccccc3n2)s1 | 2.53 µM
40 | O=C(CNC(=O)c1ccc(F)cc1)N/N=C/c1cc(Br)ccc1OCc1ccccc1 | 12.2 µM
41 | O=S(=O)(Nc1nc2ccccc2nc1Cl)c1ccc2ccccc2c1 | > 5 µM (inactive)
42 | CCCCc1nc(NCc2ccccc2)c(C#N)c2c1CCCC2 | 8.22 µM
43 | COc1cccc2sc(Nc3nnc(-c4ccc(F)cc4)o3)nc12 | 0.546 µM
44 | CCOC(=O)c1sc(NC(=O)Nc2cccc(Cl)c2)cc1C | 2.39 µM
45 | C/C(=N\NC(=O)c1ccccc1N)c1ccc(NC(=O)Cc2ccccc2)cc1 | 4.95 µM
46 | Cc1ccc(Nc2cc(C)nn2-c2nc(C)cc(=O)[nH]2)cc1 | < 0.06 µM
47 | Cc1ccc(C2(c3ccc(C)cc3)CC2C(=O)Nc2ccc([N+](=O)[O-])cc2O)cc1 (centres undefined) | 2.15 µM
48 | COc1ccc(/C=C2\Sc3ccc(C(=O)N4CCCC4)cc3N(C)C2=O)cc1OC | 0.515 µM
49 | COc1ccc(/C=C/C(=O)NC(=S)NNC(=O)c2cc(OC)c(OC)c(OC)c2)cc1OC | 1.48 µM
50 | Fc1ccc(-c2cc(C(F)(F)F)nc(N3CCCCC3)n2)cc1 | 4.68 µM
51 | CC1Oc2cc3c(-c4c(O)cc(O)c5c(O)c6c(cc45)OC(C)C(C)C6=O)c(O)cc(O)c3c(O)c2C(=O)C1C (centres undefined) | 0.319 µM
52 | Cc1cc(N2C(=O)C(O)=C(C(=O)c3cc4ccccc4o3)C2c2ccc(Br)cc2)no1 (centres undefined) | 1.24 µM
53 | Cc1ccc(C(=O)NNC(=S)NC(=O)c2ccc(Cl)cc2)cc1 | 0.074 µM
54 | COc1ccc(N=Nc2ccc(O)c3ncccc23)cc1 | < 0.06 µM
